Experimental data from PubChem BioAssay (NCI).
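A five-concentration, 48-hour dose response in 96-well plates underlies each endpoint, interpolated linearly between surrounding concentrations. Here, GI50 denotes the concentration required for 50% inhibition of growth. At the TGI there is no net growth.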

How the values were obtained:
Assay in all cases: DTP human tumour cell line panel, 48 h
[1] = test system: U251 CNS
[2] = test system: MALME-3M melanoma
[3] = test system: SF-295 CNS
[4] = test system: EKVX NSCLC
[5] = test system: A549 NSCLC
[6] = test system: SN12C renal
[7] = test system: K-562 leukemia
[8] = test system: SNB-19 CNS
[9] = test system: HT29 colon
[10] = test system: M14 melanoma

SMILES	TGI [1] [µM]	TGI [2] [µM]	TGI [3] [µM]	TGI [4] [µM]	TGI [5] [µM]	TGI [6] [µM]	TGI [7] [µM]	TGI [8] [µM]	TGI [9] [µM]	TGI [10] [µM]	GI50 [1] [µM]	GI50 [2] [µM]	GI50 [3] [µM]	GI50 [4] [µM]	GI50 [5] [µM]	GI50 [6] [µM]	GI50 [7] [µM]	GI50 [8] [µM]	GI50 [10] [µM]	GI50 [9] [µM]
Cc1nc2ccccc2c(=O)n1CC(=O)O	> 100	> 100	> 100	> 100	> 100	> 100	> 100	> 100	> 100	–	–	–	–	–	–	–	–	–	–	–
CCOc1ccc2c(ccc(/C=C\c3cc(C)c4cccnc4c3O)[n+]2C)c1	4.53	14	20.7	15.2	26.4	15.5	26.8	30.7	> 32.8	18.7	–	–	–	–	–	–	–	–	–	–
CC(=O)O[C@H]1CC[C@@]2(C)C(=CC[C@@H]3[C@@H]2CC[C@]2(C)C(=N/O)/C(=C/c4ccc([N+](=O)[O-])cc4)C[C@@H]32)C1	–	> 100	20.7	–	> 100	87.3	> 100	37.1	> 100	47.7	–	–	–	–	–	–	–	–	–	–
CC(C)=CC(=O)OC1C2C(C)C(=O)OC2C(O)C(C)C2C=CC(=O)C21C (centres undefined)	8.3	8.28	13.4	7.88	33.6	8.19	25.3	17.4	7.94	–	–	–	–	–	–	–	–	–	–	–
C[C@]12C=CC(=O)C=C1CC[C@@H]1[C@@H]2C(=O)C[C@@]2(C)[C@H]1CC[C@]2(O)C(=O)CO	> 100	> 100	> 100	> 100	> 100	> 100	> 100	> 100	> 100	> 100	–	–	–	–	–	–	–	–	–	–
COc1cc2c3c(n(CCN(C)C)c(=O)c2cc1OC)-c1cc2c(cc1C3=O)OCO2	> 100	> 52.6	> 41.7	> 100	> 100	> 100	97.4	> 100	> 73.4	> 100	2.64	6.17	0.511	37	0.799	4.38	2.53	> 20.7	–	–
Cn1cc(C[C@@H](N)C(=O)O)c2ccccc21	> 100	> 100	> 100	> 100	> 100	> 100	> 100	> 100	> 100	> 100	–	–	–	–	–	–	–	–	–	–
O=C(O)c1cc(=O)[nH]c(=S)[nH]1	> 100	> 100	> 100	> 100	> 100	> 100	> 100	> 100	> 100	> 100	–	–	–	–	–	–	–	–	–	–
CCN(CC)CCCC(Nc1c2ccc(Cl)cc2nc2ccc(OC)cc12)c1ccc(F)cc1 (centres undefined)	3.88	3.68	3.16	8.48	5.99	4.68	4.26	–	9.87	3.58	1.92	1.99	1.6	2.08	2.44	2.03	2.18	–	1.88	2.7
CN1C2C=C(c3ccccc3)CC1CC2 (centres undefined)	> 100	> 100	> 100	> 100	> 100	> 100	> 100	> 100	> 100	> 100	–	–	–	–	–	–	–	–	–	–
COc1c2c(cc3c(CCc4ccccc4)cc(=O)oc13)CCC(C)(C)O2	> 100	> 100	> 100	> 100	–	> 100	> 100	–	> 100	> 100	–	–	–	–	–	–	–	–	–	–
CCCCN(CCCC)CCCCNc1c(C)cnc2cc(Cl)ccc12	> 100	36.1	50.8	46.3	> 100	> 100	43.3	> 100	57.8	4.05	–	–	–	–	–	–	–	–	–	–
Cc1ccc(/C(=C/C=C(C#N)C#N)Sc2cc(Cl)ccc2Cl)cc1	15	35.5	16	46.6	> 100	13.9	–	22.3	> 100	16.4	–	–	–	–	–	–	–	–	–	–
